Laboratory results from patent US9586951B2 (FUJIFILM Corporation, priority 2013, dated 2017).

Target: T1, ATM (Homo sapiens, UniProt Q13315)
T1 construct: detecting phosphorylation of Chk2 in a human non-small cell lung cancer cell line NCI-H460 (ATCC company); host or cells: NCI-H460 human non-small cell lung cancer cells
Experiment: ATM inhibition test (phosphorylation of Chk2 generated by ionizing radiation, AlphaScreen SureFire)
Type: cell-based
Conditions: phosphorylated Chk2 in NCI-H460 cells, ionizing radiation 8Gy, 1 hour after test compound treatment; read-out: ATM inhibitory activity
Summary of the method: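 NCI-H460 cells treated with compound for 1 hour, then irradiated with 8Gy and incubated 1 hour at 37° C. Phospho-Chk2 measured by AlphaScreen SureFire. Inhibition ratio calculated relative to untreated irradiated and non-irradiated wells.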

T1 sequence (Q13315 whole entry): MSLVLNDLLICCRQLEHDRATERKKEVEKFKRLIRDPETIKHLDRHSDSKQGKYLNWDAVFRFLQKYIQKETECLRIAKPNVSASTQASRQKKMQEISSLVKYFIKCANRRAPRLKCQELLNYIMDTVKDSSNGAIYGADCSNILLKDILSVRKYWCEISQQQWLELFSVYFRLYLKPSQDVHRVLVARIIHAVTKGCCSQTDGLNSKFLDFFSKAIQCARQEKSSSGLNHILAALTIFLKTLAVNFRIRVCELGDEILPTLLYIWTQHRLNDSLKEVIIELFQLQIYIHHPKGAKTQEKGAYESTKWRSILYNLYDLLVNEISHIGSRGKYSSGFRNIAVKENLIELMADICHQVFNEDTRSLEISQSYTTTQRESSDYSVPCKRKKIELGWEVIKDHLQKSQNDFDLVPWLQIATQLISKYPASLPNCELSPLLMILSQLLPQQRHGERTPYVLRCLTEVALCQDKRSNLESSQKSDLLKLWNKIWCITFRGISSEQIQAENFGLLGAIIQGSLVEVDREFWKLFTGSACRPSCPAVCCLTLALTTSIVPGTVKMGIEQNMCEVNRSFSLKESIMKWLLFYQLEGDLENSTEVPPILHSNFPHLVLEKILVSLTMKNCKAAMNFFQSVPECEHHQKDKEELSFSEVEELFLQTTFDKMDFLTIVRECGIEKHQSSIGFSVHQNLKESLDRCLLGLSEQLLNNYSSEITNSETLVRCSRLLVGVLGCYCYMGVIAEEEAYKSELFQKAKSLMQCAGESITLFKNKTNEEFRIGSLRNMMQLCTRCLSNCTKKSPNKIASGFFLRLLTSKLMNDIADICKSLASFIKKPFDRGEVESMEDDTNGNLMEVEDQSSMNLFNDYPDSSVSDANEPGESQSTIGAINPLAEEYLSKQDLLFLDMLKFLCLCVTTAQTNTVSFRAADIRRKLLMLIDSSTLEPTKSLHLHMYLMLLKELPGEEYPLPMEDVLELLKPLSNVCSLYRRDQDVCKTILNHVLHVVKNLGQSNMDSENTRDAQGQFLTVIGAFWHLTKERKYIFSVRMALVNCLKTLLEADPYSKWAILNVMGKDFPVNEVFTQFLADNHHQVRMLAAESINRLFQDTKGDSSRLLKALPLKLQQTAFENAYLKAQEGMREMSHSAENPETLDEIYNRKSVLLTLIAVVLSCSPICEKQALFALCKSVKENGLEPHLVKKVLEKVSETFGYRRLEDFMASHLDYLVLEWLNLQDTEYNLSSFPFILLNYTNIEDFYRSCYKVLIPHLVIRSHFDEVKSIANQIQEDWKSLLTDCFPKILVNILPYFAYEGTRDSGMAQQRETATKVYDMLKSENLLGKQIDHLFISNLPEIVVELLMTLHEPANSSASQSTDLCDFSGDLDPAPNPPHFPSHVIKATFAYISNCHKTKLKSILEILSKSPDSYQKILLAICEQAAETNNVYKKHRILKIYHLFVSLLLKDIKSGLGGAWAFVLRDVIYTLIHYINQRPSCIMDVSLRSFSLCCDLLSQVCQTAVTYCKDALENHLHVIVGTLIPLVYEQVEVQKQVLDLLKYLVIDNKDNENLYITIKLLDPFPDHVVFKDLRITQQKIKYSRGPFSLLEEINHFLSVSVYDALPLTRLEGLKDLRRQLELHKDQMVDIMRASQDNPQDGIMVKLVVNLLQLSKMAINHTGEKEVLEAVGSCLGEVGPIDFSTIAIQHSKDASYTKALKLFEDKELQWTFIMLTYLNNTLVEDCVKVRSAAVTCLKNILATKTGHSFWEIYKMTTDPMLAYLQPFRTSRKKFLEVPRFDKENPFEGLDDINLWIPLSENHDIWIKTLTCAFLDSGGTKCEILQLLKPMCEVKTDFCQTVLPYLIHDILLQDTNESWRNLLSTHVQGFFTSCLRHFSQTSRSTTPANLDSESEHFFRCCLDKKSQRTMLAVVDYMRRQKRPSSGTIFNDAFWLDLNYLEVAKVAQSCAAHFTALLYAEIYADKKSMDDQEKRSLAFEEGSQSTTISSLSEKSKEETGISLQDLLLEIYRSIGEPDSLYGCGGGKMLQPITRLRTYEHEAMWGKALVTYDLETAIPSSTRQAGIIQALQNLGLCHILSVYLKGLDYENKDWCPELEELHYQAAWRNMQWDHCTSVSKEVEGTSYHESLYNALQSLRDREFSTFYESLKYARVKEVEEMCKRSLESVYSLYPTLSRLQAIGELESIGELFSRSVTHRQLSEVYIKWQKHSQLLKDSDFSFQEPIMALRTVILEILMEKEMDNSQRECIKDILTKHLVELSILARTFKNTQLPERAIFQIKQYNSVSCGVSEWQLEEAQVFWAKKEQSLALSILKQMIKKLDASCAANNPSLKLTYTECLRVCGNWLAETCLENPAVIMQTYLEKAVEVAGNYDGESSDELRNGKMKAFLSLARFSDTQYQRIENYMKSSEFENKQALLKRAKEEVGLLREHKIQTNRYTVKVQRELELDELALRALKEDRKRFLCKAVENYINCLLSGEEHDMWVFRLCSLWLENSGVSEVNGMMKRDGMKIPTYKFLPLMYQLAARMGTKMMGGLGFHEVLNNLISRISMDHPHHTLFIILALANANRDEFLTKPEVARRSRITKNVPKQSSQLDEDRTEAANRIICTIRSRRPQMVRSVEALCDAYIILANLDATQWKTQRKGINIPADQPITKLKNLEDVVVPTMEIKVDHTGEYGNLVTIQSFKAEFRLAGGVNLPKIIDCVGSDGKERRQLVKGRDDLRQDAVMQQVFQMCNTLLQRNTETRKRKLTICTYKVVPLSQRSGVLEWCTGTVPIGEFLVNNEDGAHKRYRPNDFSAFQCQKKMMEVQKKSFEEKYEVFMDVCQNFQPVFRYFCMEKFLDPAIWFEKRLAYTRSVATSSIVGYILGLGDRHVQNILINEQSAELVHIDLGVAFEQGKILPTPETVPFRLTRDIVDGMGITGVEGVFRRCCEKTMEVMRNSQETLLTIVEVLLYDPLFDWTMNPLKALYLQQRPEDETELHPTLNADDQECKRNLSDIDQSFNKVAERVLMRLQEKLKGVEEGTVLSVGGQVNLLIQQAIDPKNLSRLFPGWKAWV

O=c1cc(N2CCOCC2)cc(-c2cccc3c2Oc2ccc(Nc4cccnc4)cc2C3)[nH]1 [Example 2-61, 4-Morpholino-6-(7-(pyridin-3-ylamino)-9H-xanthen-4-yl)pyridin-2(1H)-one]
IC50: 500 to 2000 nM

COc1ccncc1CNc1ccc2c(c1)Sc1cccc(-c3cc(N4CCOCC4)cc(=O)[nH]3)c1S2 [Example 1-12-23, 6-(7-(((4-Methoxypyridin-3-yl)methyl)amino)thianthren-1-yl)-4-morpholino pyridin-2 (1H)-one]
IC50: 100 to 500 nM

O=c1cc(N2CCOCC2)cc(-c2cccc3c2Sc2ccc(NCc4cncs4)cc2S3)[nH]1 [Example 1-12-54, 4-Morpholino-6-(7-((thiazol-5-ylmethyl)amino)thianthren-1-yl)pyridin-2 (1H)-one]
IC50: 100 to 500 nM

O=c1cc(N2CCOCC2)cc(-c2cccc3c2Oc2ccc(NCc4cnc5ccccc5c4)cc2C3)[nH]1 [Example 2-2-46, 4-Morpholino-6-(7-((quinolin-3-ylmethyl)amino)-9H-xanthen-4-yl) pyridin-2(1H)-one]
IC50: < 100 nM

CC(CN1CCN(Cc2cccnc2)CC1)Nc1ccc2c(c1)Sc1cccc(-c3cc(N4CCOCC4)cc(=O)[nH]3)c1S2 (centres unmarked) [Example 1-15-3, 4-Morpholino-6-(7-((1-(4-(pyridin-3-ylmethyl)piperazin-1-yl)propan-2-yl)amino)thianthren-1-yl)pyridin-2(1H)-one]
IC50: 100 to 500 nM

Cc1cncc(C(C)Nc2ccc3c(c2)Cc2cccc(-c4cc(N5CCOCC5)cc(=O)[nH]4)c2O3)c1 (centres unmarked) [Example 2-14-22, 6-(7-((1-(5-Methylpyridin-3-yl)ethyl)amino)-9H-xanthen-4-yl)-4-morpholino pyridin-2(1H)-one]
IC50: 100 to 500 nM

CC(C)(C)OC(=O)N1CCC(C#N)(Nc2ccc3c(c2)Cc2cccc(-c4cc(N5CCOCC5)cc(=O)[nH]4)c2O3)CC1 [Example 2-26, tert-butyl 4-cyano-4-((5-(4-morpholino-6-oxo-1,6-dihydropyridin-2-yl)-9H-xanthen-2-yl)amino)piperidine-1-carboxylate]
IC50: 500 to 2000 nM

Cc1cccc(C(CN)Nc2ccc3c(c2)Sc2cccc(-c4cc(N5CCOCC5)cc(=O)[nH]4)c2S3)n1 (centres unmarked) [Example 1-19-2, 6-(7-((2-Amino-1-(6-methylpyridin-2-yl)ethyl)amino)thianthren-1-yl)-4-morpholinopyridin-2(1H)-one]
IC50: 100 to 500 nM

CCC(C(=O)Nc1ccc2c(c1)Sc1cccc(-c3cc(N4CCOCC4)cc(=O)[nH]3)c1S2)N1CCCC1 (centres unmarked) [Example 1-6-1, N-(6-(4-morpholino-6-oxo-1,6-dihydropyridin-2-yl)thianthren-2-yl)-2-(pyrrolidin-1-yl)butanamide]
IC50: 100 to 500 nM

Nc1ncccc1CNc1ccc2c(c1)Cc1cccc(-c3cc(N4CCOCC4)cc(=O)[nH]3)c1O2 [Example 2-2-21, 6-(7-(((2-Aminopyridin-3-yl)methyl)amino)-9H-xanthen-4-yl)-4-morpholino pyridin-2(1H)-one]
IC50: 100 to 500 nM

O=c1cc(N2CCOCC2)cc(-c2cccc3c2Sc2ccc(NCc4nccs4)cc2S3)[nH]1 [Example 1-12-52, 4-Morpholino-6-(7-((thiazol-2-ylmethyl)amino)thianthren-1-yl) pyridin-2 (1H)-one]
IC50: 100 to 500 nM

CN(C)c1ncc(CNc2ccc3c(c2)Sc2cccc(-c4cc(N5CCOCC5)cc(=O)[nH]4)c2O3)cn1 [Example 4-4-5, 6-(8-(((2-(Dimethylamino)pyrimidin-5-yl)methyl)amino)phenoxathiin-4-yl)-4-morpholino pyridin-2 (1H)-one]
IC50: 100 to 500 nM

Cc1cnc(C(CCN(C)C)Nc2ccc3c(c2)Sc2cccc(-c4cc(=O)cc(N5CCOCC5)o4)c2S3)cn1 (single isomer, unassigned) [Example 10-8, 2-(7-((3-(dimethylamino)-1-(5-methylpyrazin-2-yl)propyl)amino)thianthren-1-yl)-6-morpholino-4H-pyran-4-one]
IC50: < 100 nM

Cn1cc(-c2cc(CNc3ccc4c(c3)Cc3cccc(-c5cc(N6CCOCC6)cc(=O)[nH]5)c3O4)ccn2)cn1 [Example 2-4, 6-(7-(((2-(1-methyl-1H-pyrazol-4-yl)pyridin-4-yl)methyl)amino)-9H-xanthen-4-yl)-4-morpholinopyridin-2(1H)-one]
IC50: < 100 nM

COc1ccc(CN2CCC(Nc3ccc4c(c3)Cc3cccc(-c5cc(N6CCOCC6)cc(=O)[nH]5)c3O4)CC2)cn1 [Example 2-28-6, 6-(7-((1-((6-Methoxypyridin-3-yl)methyl)piperidin-4-yl)amino)-9H-xanthen-4-yl)-4-morpholino pyridin-2(1H)-one]
IC50: 100 to 500 nM

Cc1cnc(C(CCN2CCC2)Nc2ccc3c(c2)Sc2cccc(-c4cc(N5CCOCC5)cc(=O)[nH]4)c2S3)cn1 (single isomer, unassigned) [Example 1-51-11, 6-(7-((3-(Azetidin-1-yl)-1-(5-methylpyrazin-2-yl)propyl)amino)thianthren-1-yl)-4-morpholino pyridin-2(1H)-one]
IC50: < 100 nM

COc1ccc(CNc2ccc3c(c2)Cc2cccc(-c4cc(N5CCOCC5)cc(=O)[nH]4)c2O3)cc1 [Example 2-40, 6-(7-((4-methoxybenzyl)amino)-9H-xanthen-4-yl)-4-morpholinopyridin-2(1H)-one]
IC50: 100 to 500 nM

COc1cncc(C(C)Nc2ccc3c(c2)Sc2cccc(-c4cc(N5CCOCC5)cc(=O)[nH]4)c2S3)c1 (single isomer, unassigned) [Example 1-12-145-2, 6-(7-((1-(5-methoxypyridin-3-yl)ethyl)amino)thianthren-1-yl)-4-morpholinopyridin-2(1H)-one]
IC50: < 100 nM

O=c1cc(N2CCOCC2)cc(-c2cc(F)cc3c2Oc2ccc(NCc4cc(C5CC5)ccn4)cc2C3)[nH]1 [Example 2-48-4, 6-(7-(((4-Cyclopropylpyridin-2-yl)methyl)amino)-2-fluoro-9H-xanthen-4-yl)-4-morpholinopyridin-2(1H)-one]
IC50: 100 to 500 nM

Cc1ccc(C(Nc2ccc3c(c2)Sc2cccc(-c4cc(N5CCOCC5)cc(=O)[nH]4)c2S3)[C@H]2CCN(C)C2)nc1 (single isomer, unassigned) [Example 1-56-15]
IC50: < 100 nM

N#Cc1ccc(CNc2ccc3c(c2)Sc2cccc(-c4cc(N5CCOCC5)cc(=O)[nH]4)c2S3)s1 [Example 1-12-51, 5-(((6-(4-Morpholino-6-oxo-1,6-dihydropyridin-2-yl)thianthren-2-yl)amino)methyl)thiophene-2-carbonitrile]
IC50: 100 to 500 nM

COc1cncc(CNc2ccc3c(c2)Cc2cc(C)cc(-c4cc(N5CCOCC5)cc(=O)[nH]4)c2O3)c1 [Example 2-49-2, 6-(7-(((5-Methoxypyridin-3-yl)methyl)amino)-2-methyl-9H-xanthen-4-yl)-4-morpholinopyridin-2(1H)-one]
IC50: 100 to 500 nM

O=c1cc(N2CCOCC2)cc(-c2cccc3c2Oc2ccc(NCc4cncc(-n5cncn5)c4)cc2C3)[nH]1 [Example 2-2-59, 6-(7-(((5-(1H-1,2,4-Triazol-1-yl)pyridin-3-yl)methyl)amino)-9H-xanthen-4-yl)-4-morpholino pyridin-2(1H)-one]
IC50: 100 to 500 nM

Nc1ncccc1CNc1ccc2c(c1)Sc1cccc(-c3cc(N4CCOCC4)cc(=O)[nH]3)c1O2 [Example 4-8-20, 6-(8-(((2-Aminopyridin-3-yl)methyl)amino)phenoxathiin-4-yl)-4-morpholino pyridin-2(1H)-one]
IC50: 500 to 2000 nM

COc1cnccc1CNc1ccc2c(c1)Cc1cccc(-c3cc(N4CCOCC4)cc(=O)[nH]3)c1O2 [Example 2-14-9, 6-(7-(((3-Methoxypyridin-4-yl)methyl)amino)-9H-xanthen-4-yl)-4-morpholino pyridin-2(1H)-one]
IC50: 100 to 500 nM

Cc1ccc(C(CCN(C)CCN(C)C)Nc2ccc3c(c2)Sc2cccc(-c4cc(N5CCOCC5)cc(=O)[nH]4)c2S3)nc1 (single isomer, unassigned) [Example 10-5-1, 6-(7-((3-((2-(Dimethylamino)ethyl)(methyl)amino)-1-(5-methylpyridin-2-yl)propyl)amino)thianthren-1-yl)-4-morpholinopyridin-2(1H)-one]
IC50: < 100 nM

CC(C)(C)NCCNc1ccc2c(c1)Sc1cccc(-c3cc(N4CCOCC4)cc(=O)[nH]3)c1S2 [Example 1-10-13, 6-(7-((2-(tert-Butylamino)ethyl)amino)thianthren-1-yl)-4-morpholino pyridin-2 (1H)-one]
IC50: 500 to 2000 nM

COCCNCCC(Nc1ccc2c(c1)Sc1cccc(-c3cc(N4CCOCC4)cc(=O)[nH]3)c1S2)c1cccc(C)n1 (centres unmarked) [Example 1-20-10, 6-(7-((3-((2-Methoxyethyl)amino)-1-(6-methylpyridin-2-yl)propyl)amino)thianthren-1-yl)-4-morpholino pyridin-2 (1H)-one]
IC50: 100 to 500 nM

COc1ncc(C(C)Nc2ccc3c(c2)Sc2cccc(-c4cc(N5CCOCC5)cc(=O)[nH]4)c2S3)cn1 (centres unmarked) [Example 1-12-76]
IC50: 100 to 500 nM

Cc1cncc(C(C)Nc2ccc3c(c2)Cc2cccc(-c4cc(N5CCOCC5)cc(=O)[nH]4)c2O3)c1 (single isomer, unassigned) [Example 2-14-88-2, 6-(7-((1-(5-methylpyridin-3-yl)ethyl)amino)-9H-xanthen-4-yl)-4-morpholinopyridin-2(1H)-one]
IC50: 100 to 500 nM

Cc1ccc(C(CCN(C)C)Nc2ccc3c(c2)Sc2cccc(-c4cc(N5CCOCC5)cc(=O)[nH]4)c2S3)nc1 (single isomer, unassigned) [Example 1-51-5, 6-(7-((3-(Dimethylamino)-1-(5-methylpyridin-2-yl)propyl)amino)thianthren-1-yl)-4-morpholino pyridin-2 (1H)-one]
IC50: < 100 nM

COCCN(C)CCC(Nc1ccc2c(c1)Sc1cccc(-c3cc(N4CCOCC4)cc(=O)[nH]3)c1S2)c1cnc(C)cn1 (single isomer, unassigned) [Example 10-3-4, 6-(7-((3-((2-Methoxyethyl) (methyl)amino)-1-(5-methylpyrazin-2-yl)propyl)amino)thianthren-1-yl)-4-morpholino pyridin-2(1H)-one]
IC50: < 100 nM
